Legend:
[1] = test system: MRC-5 normal human lung fibroblast cell line; assay: MTT in vitro cytotoxicity, MRC-5 (selectivity); type: cell-based; conditions: for IC50: normal cells, MTT, incubation 24 h, mean ± SD
Experimental: (§1) The cytotoxicity assessment was conducted on various human cancer cell lines, including A2780 ovarian carcinoma, A2780R cisplatin-resistant ovarian carcinoma, MCF-7 breast, HOS osteosarcoma, A549 epithelial lung, PANC-1 pancreatic, Caco-2 colorectal, PC-3 prostate adenocarcinoma, and HeLa cervical cell lines. Additionally, the assessment extended to a normal human fetal fibroblast cell line (MRC-5). Cells were obtained from ATCC collection and cultivated according to the producer’s instructions. Stock solutions of the compounds were prepared in DMF immediately before application, and diluted with H2O to achieve the final concentration of 0.1% v/v DMF.[99] The culture media were enriched with 10% fetal calf serum. Subsequently, the cells were exposed to the tested compounds, vehicle (0.1% v/v DMF) and Triton X-100 (1% v/v), during incubation. The conventional MTT assay was carried out following different incubation periods (Tables 5-6). The absorbance was measured at 570 nm by using a spectrophotometer (Infinite M200, Schoeller Instruments, Prague, Czech Republic). The obtained data are presented as the percentage of cell viability with 100% representing negative control treatment (0.1% v/v DMF) and 0% representing the positive control (Triton X-100). The half-maximal inhibitory concentrations (IC50) were determined from dose–response curves using GraphPad Prism 6 software (GraphPad Software, San Diego, USA).

[2] = Cyclic voltammetry in CH2Cl2/[N^nBu4]PF6; type: physicochemical; conditions: CH2Cl2/[N^nBu4]PF6 0.2 M
Experimental: Cyclic voltammetry measurements were conducted by using a PalmSens4 instrument connected to a computer operating with the PSTrace5 electrochemical software. Prior to use, anhydrous CH2Cl2 (Merck) was stored under argon over 3 Å molecular sieves. Both [N^nBu4]PF6 (electrochemical grade) and FeCp2, obtained from Fluka, were utilized without requiring additional purification. Cyclic voltammetries were carried out under argon by utilizing a 0.2 M solution of [N^nBu4]PF6 in CH2Cl2 as the supporting electrolyte. The working electrode and the counter electrode were comprised of a platinum disk and a platinum gauze, respectively, both enclosed within a glass tube. A leakage-free miniature electrode of Ag/AgCl/KCl (from eDAQ) was employed as a reference. The three-electrode designed cell was subjected to predrying via vacuum heating and then filled with argon gas. The Schlenk-type design of the cell was effective in upholding both anhydrous and anaerobic conditions. Subsequently, a solution of supporting electrolyte, prepared under argon, was introduced into the cell, and the CV of the solvent was acquired. Afterward, the analyte was introduced, and voltammograms were recorded. Under the selected experimental conditions, the one-electron oxidation of ferrocene occurred at a standard potential of E° = +0.45 V relative to Ag/AgCl/KCl.

[3] = test system: MCF-7 breast adenocarcinoma cell line; assay: MTT in vitro cytotoxicity, MCF-7; type: cell-based, human; conditions: incubation 24 h, mean ± SD
Experimental: as §1

[4] = vs Ag/AgCl/KCl, peak potential of irreversible process

Row | SMILES | IC50 [1] [µM] | Formal electrode potential, oxidation [2, 4] | Formal electrode potential, reduction [2, 4] | Formal electrode potential, oxidation ([2]; vs FeCp2 (in parentheses)) | Formal electrode potential, reduction ([2]; vs FeCp2 (in parentheses)) [V] | IC50 [3] [µM] | IC50 on healthy MRC-5 cell line compared to the average IC50 values of the cancer cell lines ([1]; 24 h, selectivity)
1 | F[B-](F)(F)F.O=[C]=[Ru+]1([CH]2C=CC=C2)[C](=O)[Ru]1(=[C]=O)([CH]=C=C1CCCC1)[CH]1C=CC=C1 (stereo not drawn) [3a, [Ru2Cp2(CO)3{μ–η^1:η^2-CH=C=(cyclopentylidene)}]BF4] | 38.3 ± 3.9 | +1.61 V | –1.00 V | +1.15 V | −1.46 | 16.2 ± 1.7 | 
2 | CC12CCC3c4ccc(O)cc4CCC3C1CCC2=C=[CH][Ru]1(=[C]=O)([CH]2C=CC=C2)[C](=O)[Ru+]1(=[C]=O)[CH]1C=CC=C1.F[B-](F)(F)F (mixture of isomers) [3b, [Ru2Cp2(CO)3{μ–η^1:η^2-CH=C=(estradiolylidene)}]BF4] | 25.9 ± 2.9 |  |  |  |  | 11.6 ± 1.5 | approximately 2 fold
